From patent US20210188773A1, “NOVEL POLYMOPHS OF S-NITROSOCAPTOPRIL (CAP-NO) AND ITS PROCESS FOR PREPARATION” (FUZHOU UNIVERSITY, priority 2018, published 2021)

Test system: Pulmonary hypertension (PAH) rats
Experiment: Effect on monocrotaline (MCT) pulmonary hypertension (PAH) model rats
Assay type: in vivo, rat
Method: Pulmonary hypertension (PAH) rats, being monocrotaline (MCT) intraperitoneal injected, were divided into 4 groups: control group (n=7), 50 mg/kg captopril group (n=7), 10 mg/kg S-nitrosocaptopril group (n=7), 50 mg/kg S-nitrosocaptopril group (n=7) and health group (n=9). Rats of all groups were orally administered once a day for 30 days.

C[C@H](CS)C(=O)N1CCC[C@H]1C(=O)O [captopril, Captopril]
average pleural effusion of dead rats (50 mg/kg oral once a day): 3.3 mL | mean right ventricular mass index (RVMI) (50 mg/kg oral once a day): 53.8% | number of rats remaining (from 7) (50 mg/kg oral once a day for 30 days): 3
